These results are taken from patent publication US7531671B2, “Dihydroisoindolones as allosteric modulators of glucokinase” (Janssen Pharmaceutica N.V., priority 2005, dated 2009).

pEC50: −log10 of the molar value. Where “and” joins values, the source holds several entries; their conditions need not be identical. Equal values may be shown once.

The experiment addresses T1, human pancreas Glucokinase (GK) (Homo sapiens, UniProt P35557).
T1 construct: (His)6; made in house; host or cells: Escherichia coli
T1 sequence (P35557 1-465): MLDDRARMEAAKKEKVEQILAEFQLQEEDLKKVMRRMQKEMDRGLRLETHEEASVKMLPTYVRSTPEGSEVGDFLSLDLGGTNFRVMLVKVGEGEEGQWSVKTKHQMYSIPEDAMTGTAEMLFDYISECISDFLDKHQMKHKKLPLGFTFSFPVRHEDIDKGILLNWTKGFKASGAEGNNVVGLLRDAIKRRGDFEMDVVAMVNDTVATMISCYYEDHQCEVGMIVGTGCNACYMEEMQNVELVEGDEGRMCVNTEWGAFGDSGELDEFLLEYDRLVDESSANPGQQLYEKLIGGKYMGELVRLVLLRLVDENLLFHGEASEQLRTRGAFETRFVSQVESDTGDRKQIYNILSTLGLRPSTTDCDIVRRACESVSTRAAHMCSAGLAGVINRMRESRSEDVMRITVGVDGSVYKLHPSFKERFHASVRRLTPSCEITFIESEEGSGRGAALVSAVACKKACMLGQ
As to the kind of experiment: Glucokinase enzyme assay, Pancreas GK data. The note with it: for pEC50: concentration producing 50% activation above vehicle control; for EC100%: concentration producing 100% activation above vehicle control; for activation at 50 µM: compound 50 μM, percentage increase in GK activity above vehicle control, 12 mM glucose. It is filed as biochemical. The source says: An enzymatic Glucokinase (GK) assay using purified recombinant human liver/pancreas enzyme was used to evaluate the effects of potential small molecule modulators.
In this assay, GK catalyzes glucose phosphorylation in the presence of ATP. The product of this reaction, glucose-6-phosphate, was then oxidized by an excess of glucose-6-phosphate dehydrogenase to produce gluconate-6-phosphate with concomitant reduction of nicotinamide adenine dinucleotide (NAD). […] Human GK (Liver/Pancreas) was expressed in Escherichia coli as a (His) 6-tagged fusion protein and was purified by metal chelate affinity chromatography. The assay was performed in a final incubation volume of 80 μl in a 96-well clear low UV absorption plates. The incubation mixture consisted of 25 mM HEPES, 2 mM MgSO4, 1 mM dithiothreotol (DTT), 1 mg/ml bovine serum albumin (BSA), 1 mM ATP, 1 mM NAD, and 12 mM glucose, 10 units per ml glucose-6-phosphate dehydrogenase, and +/−300 ng per ml GK. For determination of the affinity (Km) and Vmax, different concentrations of glucose ranging from 0.5 mM to 40 mM were used in the assay; see Grimsby, J., Sarabu, R.; Grippo, J. F.; et. al. Science 2003, 301, 370-373. Production of reduced NAD (Nicotinamide Adenine Dinucleotide) was measured as changes in absorption at 340 nm in 96-well plate reader (Envision model # 2101 Multilabel Plate reader). % Activation @ 50 μM was calculated as the percentage increase in GK activity above the vehicle control with the effective concentration of the compound being 50 μM. EC50% (μM) was calculated as the effective concentration of the compound that produces 50% activation above the vehicle control, and EC100% (μM) was calculated as the effective concentration of the compound that produces 100% activation above the vehicle control.

By pEC50 is commonly meant the negative decadic logarithm of the EC50, by convention in mol/L. Lower therefore signals a large EC50. For the compound `COc1ccc(CN2C(=O)c3ccccc3C2SCC(=O)Nc2ccccn2)cc1OC` (stereo not shown) [Compound 42, 2-[2-(3,4-Dimethoxybenzyl)-3-oxo-2,3-dihydro-1H-isoindol-1-ylsulfanyl]-N-pyridin-2-yl-acetamide], the pEC50 is 6.27 and 6.11; the “EC100%” value is 1.6 µM and 2.4 µM.

With `Cc1ccc2c(c1)C(OCC(=O)Nc1nccs1)N(Cc1ccccc1)C2=O` (stereo not shown) [Compound 60, 2-(2-Benzyl-6-methyl-3-oxo-2,3-dihydro-1H-isoindol-1-yloxy)-N-thiazol-2-yl-acetamide], the activation at 50 µM stood at 102% and the pEC50 was 5.12.

As for `COc1ccc(CN2C(=O)c3cccc(F)c3C2SCC(=O)Nc2ccccn2)cc1OC` (stereo not shown) [Compound 52, 2-[2-(3,4-Dimethoxybenzyl)-7-fluoro-3-oxo-2,3-dihydro-1H-isoindol-1-ylsulfanyl]-N-pyridin-2-yl-acetamide], the “EC100%” value was 0.056 µM and 0.066 µM.

As for `O=C(CSC1c2ccccc2C(=O)N1Cc1ccc(-n2cccn2)cc1)Nc1ccccn1` (stereo not shown) [Compound 47, 2-[3-Oxo-2-(4-pyrazol-1-yl-benzyl)-2,3-dihydro-1H-isoindol-1-ylsulfanyl]-N-pyridin-2-yl-acetamide], the activation at 50 µM was 106% and the pEC50 is 6.10.

Take `O=C(CSC1c2ccccc2C(=O)N1Cc1ccc2c(c1)OCCO2)Nc1ccccn1` (stereo not shown) [Compound 38, 2-[2-(2,3-Dihydro-benzo[1,4]dioxin-6-ylmethyl)-3-oxo-2,3-dihydro-1H-isoindol-1-ylsulfanyl]-N-pyridin-2-yl-acetamide]: the activation at 50 µM was determined as 201%, the pEC50 is 6.00 and the “EC100%” value is 3.8 µM.

In the case of `O=C(CSC1c2ccccc2C(=O)N1Cc1ccc2c(c1)OCO2)Nc1ccccn1` (stereo not shown) [Compound 41, 2-(2-Benzo[1,3]dioxol-5-ylmethyl-3-oxo-2,3-dihydro-1H-isoindol-1-ylsulfanyl)-N-pyridin-2-yl-acetamide], the activation at 50 µM stood at 152%, the pEC50 is 5.55 and the “EC100%” value amounted to 10 µM.

On to `O=C(CSC1c2ccccc2C(=O)N1Cc1ccc(F)cc1)Nc1ccc(C(=O)O)cn1` (stereo not shown) [Compound 54, 6-{2-[2-(4-Fluorobenzyl)-3-oxo-2,3-dihydro-1H-isoindol-1-ylsulfanyl]-acetylamino}-nicotinic acid], for which the activation at 50 µM turned out to be 358%, the pEC50 is 5.96 and the “EC100%” value was 6.1 µM.

As to `O=C(CSC1c2ccccc2C(=O)N1Cc1ccc(-n2cccc2)cc1)Nc1ccccn1` (stereo not shown) [Compound 46, 2-[3-Oxo-2-(4-pyrrol-1-yl-benzyl)-2,3-dihydro-1H-isoindol-1-ylsulfanyl]-N-pyridin-2-yl-acetamide], the activation at 50 µM was 106%, the pEC50 was 6.10 and the “EC100%” value is 4.8 µM.

As to `Cc1[nH]c2ccc(CN3C(=O)c4ccccc4C3SCC(=O)Nc3ccccn3)cc2c1C` (stereo not shown) [Compound 45, 2-[2-(2,3-Dimethyl-1H-indol-5-ylmethyl)-3-oxo-2,3-dihydro-1H-isoindol-1-ylsulfanyl]-N-pyridin-2-yl-acetamide], the activation at 50 µM amounted to 132%, the pEC50 was 6.42 and the “EC100%” value is 2 µM.

For `COc1ccc(CN2C(=O)c3c(F)ccc(F)c3C2SCC(=O)Nc2ccc(C(=O)O)cn2)cc1OC` (stereo not shown) [Compound 57, 6-{2-[2-(3,4-Dimethoxybenzyl)-4,7-difluoro-3-oxo-2,3-dihydro-1H-isoindol-1-ylsulfanyl]-acetylamino}-nicotinic acid], the activation at 50 µM is 258%, the pEC50 was 6.89 and the “EC100%” value was found to be 0.4 µM.

`O=C(CSC1c2ccccc2C(=O)N1Cc1ccc2sccc2c1)Nc1ccccn1` (stereo not shown) [Compound 44, 2-(2-Benzo[b]thiophen-5-ylmethyl-3-oxo-2,3-dihydro-1H-isoindol-1-ylsulfanyl)-N-pyridin-2-yl-acetamide]: the activation at 50 µM was determined as 116%, the pEC50 is 6.05 and the “EC100%” value worked out at 5.9 µM.
